Source: the supplement of paper PMC11208160

Assay: recombinant UMI read abundance after kanamycin selection (control-corrected) (log10(CPM+1)); higher = more efficient recombination; extreme values may be limits of the assay; sequences stand for … in AGTGCAGAGAAAATCGGCCAGTTTTCTCTGCCTGCAGTCCGCATGCCGTGGGACCCCTTGGGTTCTAACCTGTTGCCTAGATTTATGCAGCGGACTGCCTTTCTCCCAAAGTGATAAACCGG…AGGTTGGTTTCACT; site = the 11-nt donor
How it was run: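 Two replicates each of selected and unselected plating were used in this pooled Escherichia coli screen of donor and donor-binding-loop pairs for the IS621 bridge recombinase. Selection was with IPTG (0.07 mM) and kanamycin. Counts of recombinant UMIs, amplified across the donor–target junction, were converted to CPM, averaged, scaled by control-derived factors and reported as log10(CPM+1).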
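Note: IS621 bridge recombinase in Escherichia coli cells against a fixed T5 target plasmid.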

Sequence	recombinant UMI read abundance (log10)
TACTTGACATGGACCGGTTTTCCCGGTAATCCGTATTTGCT (site TACTTTACTAG)	0
TACTTGACATGGACCGGTTTTCCCGGTAATCCGTATTTGCT (site TAGTTGACTAG)	0.00537
TACTTGACATGGACCGGTTTTCCCGGTAATCCGTATTTGCT (site TATTTGACTAG)	0.0574
TACTTGACATGGACCGGTTTTCCCGGTAATCCGTATTTGCT (site TCCTTGACTAG)	0.255
TACTTGACATGGACCGGTTTTCCCGGTAATCCGTATTTGCT (site TGCTTGACTAG)	0.0612
TACTTGACATGGACCGGTTTTCCCGGTAATCCGTATTTGCT (site TTCTTGACTAG)	0
TACTTGCCATGGACCGGTTTTCCCGGTAATCCGTATTTGCT (site TACTTGACTAG)	0.00966
TACTTGCCATGGACCGGTTTTCCCGGTAATCCGTATTTGCT (site TACTTGCCTAG)	0.597
TACTTGCCATGGACCGGTTTTCCCGGTAATCCGTATTTGCT (site TACTTGGCTAG)	0.00743
TACTTGCCATGGACCGGTTTTCCCGGTAATCCGTATTTGCT (site TACTTGTCTAG)	0.383
TACTTGGCATGGACCGGTTTTCCCGGTAATCCGTATTTGTG (site TAATTGGCTCA)	0.0141
TACTTGGCATGGACCGGTTTTCCCGGTAATCCGTATTTGTG (site TACTTGGCTCA)	0.305
TACTTGGCATGGACCGGTTTTCCCGGTAATCCGTATTTGTG (site TAGTTGGCTCA)	0.017
TACTTGGCATGGACCGGTTTTCCCGGTAATCCGTATTTGTG (site TATTTGGCTCA)	0.00802
TACTTGTCATGGACCGGTTTTCCCGGTAATCCGTATTTGCT (site TACTTGACTAG)	0
TACTTGTCATGGACCGGTTTTCCCGGTAATCCGTATTTGCT (site TACTTGCCTAG)	0.649
TACTTGTCATGGACCGGTTTTCCCGGTAATCCGTATTTGCT (site TACTTGGCTAG)	0.00306
TACTTGTCATGGACCGGTTTTCCCGGTAATCCGTATTTGCT (site TACTTGTCTAG)	1.51
TACTTTCCATGGACCGGTTTTCCCGGTAATCCGTATTTGCC (site TACTTTCCTGG)	0
TAGAAAACATGGACCGGTTTTCCCGGTAATCCGTATTTGCA (site TAGAAAACTTG)	1.54
TAGAAAACATGGACCGGTTTTCCCGGTAATCCGTATTTGCA (site TAGAACACTTG)	1.57
TAGAAAACATGGACCGGTTTTCCCGGTAATCCGTATTTGCA (site TAGAAGACTTG)	0.00894
TAGAAAACATGGACCGGTTTTCCCGGTAATCCGTATTTGCA (site TAGAATACTTG)	0
TAGAAGACATGGACCGGTTTTCCCGGTAATCCGTATTTGCA (site TAGAAAACTTG)	0
TAGAAGACATGGACCGGTTTTCCCGGTAATCCGTATTTGCA (site TAGAACACTTG)	0.985

Sequence	recombinant UMI read abundance (log10)
TAGAAGACATGGACCGGTTTTCCCGGTAATCCGTATTTGCA (site TAGAAGACTTG)	2.51
TAGAAGACATGGACCGGTTTTCCCGGTAATCCGTATTTGCA (site TAGAATACTTG)	0
TAGAATACATGGACCGGTTTTCCCGGTAATCCGTATTTGCG (site TAGAATACTAG)	0
TAGAATACATGGACCGGTTTTCCCGGTAATCCGTATTTGCG (site TAGAATACTCG)	2.06
TAGAATACATGGACCGGTTTTCCCGGTAATCCGTATTTGCG (site TAGAATACTGG)	0
TAGAATACATGGACCGGTTTTCCCGGTAATCCGTATTTGCG (site TAGAATACTTG)	0.239
TAGAATTCATGGACCGGTTTTCCCGGTAATCCGTATTTGTA (site TAGAATTCTTA)	1.67
TAGACTACATGGACCGGTTTTCCCGGTAATCCGTATTTGCA (site TAGAATACTTG)	0.379
TAGACTACATGGACCGGTTTTCCCGGTAATCCGTATTTGCA (site TAGACTACTTG)	1.62
TAGACTACATGGACCGGTTTTCCCGGTAATCCGTATTTGCA (site TAGAGTACTTG)	0.0124
TAGACTACATGGACCGGTTTTCCCGGTAATCCGTATTTGCA (site TAGATTACTTG)	0.502
TAGATTACATGGACCGGTTTTCCCGGTAATCCGTATTTGTA (site TAGATTACTTA)	0.528
TAGCAAGCATGGACCGGTTTTCCCGGTAATCCGTATTTGAA (site TAGCAAGCTTT)	1.45
TAGCAAGCATGGACCGGTTTTCCCGGTAATCCGTATTTGAA (site TAGCCAGCTTT)	0.0116
TAGCAAGCATGGACCGGTTTTCCCGGTAATCCGTATTTGAA (site TAGCGAGCTTT)	0.00665
TAGCAAGCATGGACCGGTTTTCCCGGTAATCCGTATTTGAA (site TAGCTAGCTTT)	0.00716
TAGCATACATGGACCGGTTTTCCCGGTAATCCGTATTTGCA (site TAGAATACTTG)	0
TAGCATACATGGACCGGTTTTCCCGGTAATCCGTATTTGCA (site TAGCATACTTG)	1.62
TAGCATACATGGACCGGTTTTCCCGGTAATCCGTATTTGCA (site TAGGATACTTG)	0
TAGCATACATGGACCGGTTTTCCCGGTAATCCGTATTTGCA (site TAGTATACTTG)	0.507
TAGCATTCATGGACCGGTTTTCCCGGTAATCCGTATTTGGT (site TAGCATTCTAC)	1.23
TAGCATTCATGGACCGGTTTTCCCGGTAATCCGTATTTGGT (site TAGCCTTCTAC)	0.00694
TAGCATTCATGGACCGGTTTTCCCGGTAATCCGTATTTGGT (site TAGCGTTCTAC)	0.0097
TAGCATTCATGGACCGGTTTTCCCGGTAATCCGTATTTGGT (site TAGCTTTCTAC)	0
TAGCCATCATGGACCGGTTTTCCCGGTAATCCGTATTTGGT (site TAGCCATCTAC)	0.74

Sequence	recombinant UMI read abundance (log10)
TAGCCATCATGGACCGGTTTTCCCGGTAATCCGTATTTGGT (site TAGCCCTCTAC)	0.0197
TAGCCATCATGGACCGGTTTTCCCGGTAATCCGTATTTGGT (site TAGCCGTCTAC)	0.0186
TAGCCATCATGGACCGGTTTTCCCGGTAATCCGTATTTGGT (site TAGCCTTCTAC)	0.0124
TAGCCCTCATGGACCGGTTTTCCCGGTAATCCGTATTTGGT (site TAGCCATCTAC)	0.00538
TAGCCCTCATGGACCGGTTTTCCCGGTAATCCGTATTTGGT (site TAGCCCTCTAC)	1.12
TAGCCCTCATGGACCGGTTTTCCCGGTAATCCGTATTTGGT (site TAGCCGTCTAC)	0.0119
TAGCCCTCATGGACCGGTTTTCCCGGTAATCCGTATTTGGT (site TAGCCTTCTAC)	0
TAGCCGACATGGACCGGTTTTCCCGGTAATCCGTATTTGAC (site TAGCCGACTGT)	2.63
TAGCCGGCATGGACCGGTTTTCCCGGTAATCCGTATTTGGC (site TAGCCGGCTGC)	1.62
TAGCCGGCATGGACCGGTTTTCCCGGTAATCCGTATTTGGC (site TCGCCGGCTGC)	0
TAGCCGGCATGGACCGGTTTTCCCGGTAATCCGTATTTGGC (site TGGCCGGCTGC)	0
TAGCCGGCATGGACCGGTTTTCCCGGTAATCCGTATTTGGC (site TTGCCGGCTGC)	0
TAGCCTCCATGGACCGGTTTTCCCGGTAATCCGTATTTGTT (site TAGCCTCCTAA)	0.0845
TAGCCTGCATGGACCGGTTTTCCCGGTAATCCGTATTTGAT (site TAGCCTGCTAT)	0.0647
TAGCGCGCATGGACCGGTTTTCCCGGTAATCCGTATTTGTC (site TAGCGCGCTGA)	2.77
TAGCTAGCATGGACCGGTTTTCCCGGTAATCCGTATTTGAC (site TAGCTAGCTAT)	0.556
TAGCTAGCATGGACCGGTTTTCCCGGTAATCCGTATTTGAC (site TAGCTAGCTCT)	0
TAGCTAGCATGGACCGGTTTTCCCGGTAATCCGTATTTGAC (site TAGCTAGCTGT)	2.34
TAGCTAGCATGGACCGGTTTTCCCGGTAATCCGTATTTGAC (site TAGCTAGCTTT)	0.388
TAGCTAGCATGGACCGGTTTTCCCGGTAATCCGTATTTGAG (site TAGCTAGCTAT)	0.457
TAGCTAGCATGGACCGGTTTTCCCGGTAATCCGTATTTGAG (site TAGCTAGCTCT)	0.921
TAGCTAGCATGGACCGGTTTTCCCGGTAATCCGTATTTGAG (site TAGCTAGCTGT)	0
TAGCTAGCATGGACCGGTTTTCCCGGTAATCCGTATTTGAG (site TAGCTAGCTTT)	0.014
TAGCTAGCATGGACCGGTTTTCCCGGTAATCCGTATTTGGA (site TAGCTAGCTTA)	0.347
TAGCTAGCATGGACCGGTTTTCCCGGTAATCCGTATTTGGA (site TAGCTAGCTTC)	0.303
